Article PMC8922279, “Identification of β-Lactams Active against Mycobacterium tuberculosis by a Consortium of Pharmaceutical Companies and Academic Institutions” (ACS Infectious Diseases, 2022)
≈ marks a conversion by molar mass, not a printed value.

Tests used:
[1] = 2 h, 2 μM
[2] = Metabolic stability, human; assay type: in vitro ADME
Experimental: Metabolic stability and induction of human hepatocytes were performed as previously described.[71]

[3] = in vitro; conditions: CD-1, mouse, plasma, pH 7.4, % bound to plasma
[4] = biological target: T1, hERG (Homo sapiens, UniProt Q12809); test: hERG channel measurements (QPatch automated patch clamp); assay type: cell-based; conditions: HEK293 cells stably transfected with hERG (inducible), pH 7.4
T1 construct: expressed in transfected cells
T1 sequence (Q12809 whole entry): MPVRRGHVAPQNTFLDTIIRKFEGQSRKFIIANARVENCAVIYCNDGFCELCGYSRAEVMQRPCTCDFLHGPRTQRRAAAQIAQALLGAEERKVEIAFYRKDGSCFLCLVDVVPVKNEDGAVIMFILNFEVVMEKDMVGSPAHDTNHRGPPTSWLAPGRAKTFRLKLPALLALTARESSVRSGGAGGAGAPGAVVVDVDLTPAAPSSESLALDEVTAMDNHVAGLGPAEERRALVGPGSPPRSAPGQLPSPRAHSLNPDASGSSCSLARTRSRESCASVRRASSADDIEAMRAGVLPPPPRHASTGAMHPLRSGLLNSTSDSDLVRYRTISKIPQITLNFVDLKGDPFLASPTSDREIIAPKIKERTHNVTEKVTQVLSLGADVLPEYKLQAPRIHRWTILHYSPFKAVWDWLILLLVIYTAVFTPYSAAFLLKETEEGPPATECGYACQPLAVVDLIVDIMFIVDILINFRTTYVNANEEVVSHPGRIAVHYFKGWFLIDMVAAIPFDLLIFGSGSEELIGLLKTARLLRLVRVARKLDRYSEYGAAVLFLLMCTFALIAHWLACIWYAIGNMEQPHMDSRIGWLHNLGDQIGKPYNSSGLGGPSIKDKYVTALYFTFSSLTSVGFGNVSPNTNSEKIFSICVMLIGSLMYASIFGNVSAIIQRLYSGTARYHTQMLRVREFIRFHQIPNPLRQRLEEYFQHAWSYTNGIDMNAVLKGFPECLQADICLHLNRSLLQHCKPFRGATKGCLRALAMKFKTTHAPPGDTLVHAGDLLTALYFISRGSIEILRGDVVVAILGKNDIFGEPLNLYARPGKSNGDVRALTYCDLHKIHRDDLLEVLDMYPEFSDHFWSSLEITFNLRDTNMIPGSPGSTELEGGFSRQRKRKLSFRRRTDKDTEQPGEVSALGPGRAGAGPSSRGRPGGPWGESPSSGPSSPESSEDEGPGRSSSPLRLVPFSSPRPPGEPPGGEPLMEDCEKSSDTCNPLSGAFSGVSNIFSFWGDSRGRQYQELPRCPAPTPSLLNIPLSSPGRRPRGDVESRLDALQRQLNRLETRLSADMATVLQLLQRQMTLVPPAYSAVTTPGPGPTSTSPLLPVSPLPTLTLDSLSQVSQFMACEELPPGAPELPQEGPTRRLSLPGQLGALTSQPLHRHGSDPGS
Experimental: The potency of the compounds in inhibiting the human ERG potassium channel (hERG) tail current was assessed in a recombinant HEK293 cell line stably transfected with hERG cDNA under an inducible promoter using the rapid ICE (rapid ion channel electrophysiology) assay. Rapid ICE is an automated patch clamp assay utilizing a QPatch HTX system (Sophion Bioscience A/S). Briefly, inducible HEK hERG cells were cultivated in minimum essential medium supplemented with 10% FBS, 1% nonessential amino acids, 1% sodium pyruvate, 2 mM L-glutamine, 15 μg/mL blasticidin, and 100 μg/mL hygromycin. hERG channel induction was obtained by adding 10 μg/mL tetracycline for 24, 48, or 72 h before recordings. On the day of the experiment, cells were detached with TrypLE and prepared to be loaded on the instrument. Cells were resuspended in 7 mL of serum-free media containing 25 mM Hepes and soybean trypsin inhibitor and immediately placed in the cell storage tank of the machine. […] The voltage protocol was run and recorded continuously during the experiment. […] The average of tail current amplitude values recorded from four sequential voltage pulses was used to calculate for each cell the effect of the test substance by calculating the residual current (% control) compared with vehicle pretreatment. […]

[5] = system: plasma proteins; conditions: 4 h, 2 μM, pH 7.4
[6] = system: E. coli; test: Microbial spectrum, E. coli; assay type: cell-based, Escherichia coli
[7] = system: Mtb H37Rv; test: MIC90 against nonreplicating (NR, 4-stress) Mtb H37Rv, with or without clavulanate; assay type: cell-based, Mycobacterium tuberculosis; conditions: 4-stress nonreplicating, Table S4
[8] = system: Mtb H37Rv; test: MIC90 against replicating (R) Mtb H37Rv, with or without clavulanate; assay type: cell-based, Mycobacterium tuberculosis; conditions: Table S4
[9] = in vivo; conditions: female, CD-1, mouse
[10] = male, CD-1, mouse, 2 h, 2 μM
[11] = female, 129sv DHP-1 knockout, mouse, in vivo
[12] = simulated gi fluid, 10 μM, pH 6.5
[13] = in vitro; conditions: human, plasma, pH 7.4, % bound to plasma
[14] = in vitro; conditions: SD, rat, plasma, pH 7.4, % bound to plasma
[15] = Metabolic stability, mouse; assay type: in vitro ADME
[16] = in vitro; conditions: human
[17] = system: wild-type Mtb H37Rv; assay type: in vivo, 129sv DHP-1 knockout mice

SMILES: O=C(Cc1ccc(C2=NCCN2)cc1)N[C@@H]1C(=O)N2C(C(=O)O)=C(CSc3nncs3)CS[C@H]12 [TBBL-0000316]
- Plasma stability % Remaining, Human [1]: 86%
- metabolic stability [2]: 5.4 μL/min/mg protein
- metabolic stability 1/2 life [2]: 256 min
- fraction unbound at 4 h, 2 μM [3]: 0.817
- IC50 at 5 min [4]: > 50 µM
- % bound to plasma, CD-1 Mouse [5]: 18%
- MIC90 ([6]; Escherichia coli, E. coli): 31.8 µM (≈ 16.4 µg/mL)
- E.coli R + CLAV (MIC90) ([6]; clavulanate 4 μg/mL, Table S4): 31.8 µM
- Mtb H37Rv NR + CLAV (MIC90) ([7]; clavulanate 4 μg/mL): > 100 µM
- Mtb H37Rv NR (MIC90) ([7]; no clavulanate): > 100 µM
- Mtb H37Rv R + CLAV (MIC90) ([8]; clavulanate 4 μg/mL): 0.5 µM
- Mtb H37Rv R (MIC90) ([8]; no clavulanate): 44.7 µM
- AUC(0-t) ([9]; iv, 5 mg/kg): 37100 ng·h/mL
- Vd ([9]; iv, 5 mg/kg): 0.11 L/kg
- clearance ([9]; iv, 5 mg/kg): 2.25 mL/min/kg
- half-life ([9]; iv, 5 mg/kg): 34.8 min
- k el ([9]; iv, 5 mg/kg): 0.000333 s⁻¹
- AUC(0-t) ([9]; po, 25 mg/kg): 542 ng·h/mL
- bioavailability ([9]; po, 25 mg/kg): 0.3%
- Plasma stability % Remaining, Mouse [10]: 89%
- Tlast [11]: 6.0 h
- FaSSIF Stability, % remaining, 6h ([12]; 6 h): 95%
- FaSSIF Stability, % remaining, 24h ([12]; 24 h): 84%
- fraction unbound at 4 h, 2 μM [13]: 0.619
- fraction unbound at 4 h, 2 μM [14]: 0.378
- metabolic stability [15]: 1.1 μL/min/mg protein
- metabolic stability 1/2 life [15]: 1300 min
- Papp A→B at 120 min, 3 μM ([16]; Caco-2, pH 7.4): 0.31 ×10⁻⁶ cm/s
- Papp B→A at 120 min, 3 μM ([16]; Caco-2, pH 7.4): 0.32 ×10⁻⁶ cm/s
- Papp at 120 min, 3 µM ([16]; Caco-2, pH 7.4): 0.3 ×10⁻⁶ cm/s
- efflux ratio at 120 min, 3 μM ([16]; Caco-2, pH 7.4): 1.06
- recovery at 120 min, 3 μM ([16]; Caco-2, pH 7.4, Caco-2 Mean Recovery % A to B): 104%
- recovery at 120 min, 3 μM ([16]; Caco-2, pH 7.4, Caco-2 Mean Recovery % B to A): 110%
- Log10 CFU per mouse (lungs), Mean ([17]; 50 mg/kg sc bid + clavulanate 100 mg/kg po bid, days 9-15, lungs day 16, untreated day 16 mean 9.1): 8.2 Log10 CFU
- reduction of lung CFU compared to untreated control mice ([17]; mouse, in vivo): 0.9 log10
